Test system: TG, non-HDL-C, LDL-C, HDL-C, apo B, hsCRP
Experiment: REDUCE-IT trial: fasting lipid, lipoprotein and inflammatory marker data over time
Type: in vivo, human
Experimental: Fasting Lipid Profile: The fasting lipid panel included: TG, TC, LDL-C, HDL-C, non-HDL-C, and VLDL-C. At all visits, LDL-C was calculated using the Friedewald equation. At Visit 1 and Visit 1.1 direct LDL-C were used if at the same visit TG>400 mg/dL (4.52 mmol/L). These LDL-C values were used for the evaluation of the LDL-C inclusion criterion (LDL-C qualifying measurements for randomization) and for the assessment of changes in the statin therapy when LDL-C was not at goal. […] In addition, irrespective of the TG levels, at Visit 2 (0 Months of Follow-up, baseline) and at Visit 4 (12 Months of Follow-up), LDL-C were measured by preparative ultracentrifugation. These preparative ultracentrifugation LDL-C measurements were used in the statistical analysis including the calculation of the percent change from baseline (1 year versus baseline). Hopkins LDL-C was calculated for each visit.
Biomarkers Assays: The biomarker assays included: hsCRP, Apo B and hsTnT.
The fasting lipid panel was tested at Screening (Visit 1 or Visit 1.1), Randomization visit (Visit 2; Day 0), Visit 3 (Day 120; ˜4 Months) and all other follow-up visits including the last visit. For change from baseline to 1 year preparative ultracentrifugation measurements for LDL-C were analyzed, unless this value was missing. If the LDL-C preparative ultracentrifugation values were missing, then another LDL-C value was used, with prioritization of values obtained from LDL-C Direct measurements, followed by LDL-C derived by the Friedewald calculation (only for subjects with TG<400 mg/dL), and finally LDL-C derived using the calculation published by Hopkins University investigators (Martin S S, Blaha M J, Elshazly M B, et al. Comparison of a novel method vs the Friedewald equation for estimating low-density lipoprotein cholesterol levels from the standard lipid profile. JAMA. 2013; 310:2061-8.). In addition, change from baseline to day 120 in LDL-C utilizing Friedewald's and Hopkins methods was analyzed, using the arithmetic mean of LDL-C obtained at Visit 2 (Day 0) and the preceding Visit 1 (or Visit 1.1). If one of these values was missing, the single available LDL-C value was used. LDL-C according to Hopkins was calculated at each visit.
The randomization visit was considered Baseline. If a baseline value was not available from the randomization visit, then the latest screening value was used. For measurements of lipids, lipoproteins and inflammatory markers, the change and the percent change were summarized at each visit. Since these biomarkers are typically not normally distributed, the Wilcoxon rank-sum test was used for treatment comparisons of the percent change from baseline, and medians and quartiles were provided for each treatment group. The medians of the differences between the treatment groups and 95% CIs were estimated with the Hodges-Lehmann method. In addition, shift-tables were generated as appropriate.

CC/C=C\C/C=C\C/C=C\C/C=C\C/C=C\CCCC(=O)OCC [icosapent ethyl, eicosapentaenoic acid ethyl ester]
Apo B Median % Change from Baseline (Last Visit): −2.5% | Apo B Median Absolute Change from Baseline (Last Visit): -2.0 mg/dL | Apo B Median Observed Value (Last Visit): 80.0 mg/dL | HDL-C Median % Change from Baseline (Last Visit): 2.5% | HDL-C Median Absolute Change from Baseline (Last Visit): 1.0 mg/dL | HDL-C Median Observed Value (Last Visit): 41.0 mg/dL | LDL-C Hopkins Median % Change from Baseline (Last Visit): −1.2% | LDL-C Hopkins Median Absolute Change from Baseline (Last Visit): -1.0 mg/dL | LDL-C Hopkins Median Observed Value (Last Visit): 84.0 mg/dL | LDL-C derived Median % Change from Baseline (Last Visit): 3.1% | LDL-C derived Median Absolute Change from Baseline (Last Visit): 2.0 mg/dL | LDL-C derived Median Observed Value (Last Visit): 77.0 mg/dL | Log hsCRP Median % Change from Baseline (Last Visit): −23.1% | Log hsCRP Median Absolute Change from Baseline (Last Visit): −0.1 mg/L | Log hsCRP Median Observed Value (Last Visit): 0.6 mg/L | Non-HDL-C Median % Change from Baseline (Last Visit): −4.4% | Non-HDL-C Median Absolute Change from Baseline (Last Visit): -5.0 mg/dL | Non-HDL-C Median Observed Value (Last Visit): 112.0 mg/dL | Triglycerides Median % Change from Baseline (Last Visit): −21.6% | Triglycerides Median Absolute Change from Baseline (Last Visit): -45.0 mg/dL | Triglycerides Median Observed Value (Last Visit): 170.0 mg/dL | hsCRP Median % Change from Baseline (Last Visit): −12.6% | hsCRP Median Absolute Change from Baseline (Last Visit): -0.2 mg/L | hsCRP Median Observed Value (Last Visit): 1.8 mg/L | Apo B Between Group Difference Median % Change from Baseline (Last Visit, vs placebo): −6.7% | Apo B Between Group Difference Median Absolute Change from Baseline (Last Visit, vs placebo): -5.0 mg/dL | HDL-C Between Group Difference Median % Change from Baseline (Last Visit, vs placebo): −3.0% | HDL-C Between Group Difference Median Absolute Change from Baseline (Last Visit, vs placebo): -1.0 mg/dL | LDL-C Hopkins Between Group Difference Median % Change from Baseline (Last Visit, vs placebo): −7.4% | LDL-C Hopkins Between Group Difference Median Absolute Change from Baseline (Last Visit, vs placebo): -6.2 mg/dL | LDL-C derived Between Group Difference Median % Change from Baseline (Last Visit, vs placebo): −6.6% | LDL-C derived Between Group Difference Median Absolute Change from Baseline (Last Visit, vs placebo): -5.0 mg/dL | Log hsCRP Between Group Difference Median % Change from Baseline (Last Visit, vs placebo): −21.2% | Log hsCRP Between Group Difference Median Absolute Change from Baseline (Last Visit, vs placebo): −0.4 mg/L | Non-HDL-C Between Group Difference Median % Change from Baseline (Last Visit, vs placebo): −8.6% | Non-HDL-C Between Group Difference Median Absolute Change from Baseline (Last Visit, vs placebo): -10.0 mg/dL | Triglycerides Between Group Difference Median % Change from Baseline (Last Visit, vs placebo): −14.1% | Triglycerides Between Group Difference Median Absolute Change from Baseline (Last Visit, vs placebo): -32.0 mg/dL | hsCRP Between Group Difference Median % Change from Baseline (Last Visit, vs placebo): −37.6% | hsCRP Between Group Difference Median Absolute Change from Baseline (Last Visit, vs placebo): -0.8 mg/L | HDL-C Median % Change from Baseline (Month 4): −2.8% | HDL-C Median Absolute Change from Baseline (Month 4): -1.0 mg/dL | HDL-C Median Observed Value (Month 4): 39.0 mg/dL | LDL-C Hopkins Median % Change from Baseline (Month 4): −2.0% | LDL-C Hopkins Median Absolute Change from Baseline (Month 4): -1.6 mg/dL | LDL-C Hopkins Median Observed Value (Month 4): 83.6 mg/dL | Non-HDL-C Median % Change from Baseline (Month 4): −4.0% | Non-HDL-C Median Absolute Change from Baseline (Month 4): -4.5 mg/dL | Non-HDL-C Median Observed Value (Month 4): 113.0 mg/dL | Triglycerides Median % Change from Baseline (Month 4): −18.6% | Triglycerides Median Absolute Change from Baseline (Month 4): -37.5 mg/dL | Triglycerides Median Observed Value (Month 4): 177.0 mg/dL | HDL-C Between Group Difference Median % Change from Baseline (Month 4, vs placebo): −7.2% | HDL-C Between Group Difference Median Absolute Change from Baseline (Month 4, vs placebo): -3.0 mg/dL | LDL-C Hopkins Between Group Difference Median % Change from Baseline (Month 4, vs placebo): −10.3% | LDL-C Hopkins Between Group Difference Median Absolute Change from Baseline (Month 4, vs placebo): -8.7 mg/dL | Non-HDL-C Between Group Difference Median % Change from Baseline (Month 4, vs placebo): −12.2% | Non-HDL-C Between Group Difference Median Absolute Change from Baseline (Month 4, vs placebo): -14.3 mg/dL | Triglycerides Between Group Difference Median % Change from Baseline (Month 4, vs placebo): −20.1% | Triglycerides Between Group Difference Median Absolute Change from Baseline (Month 4, vs placebo): -45.5 mg/dL | HDL-C Median % Change from Baseline (Year 1): −2.6% | HDL-C Median Absolute Change from Baseline (Year 1): -1.0 mg/dL | HDL-C Median Observed Value (Year 1): 39.0 mg/dL | LDL-C Hopkins Median % Change from Baseline (Year 1): −1.2% | LDL-C Hopkins Median Absolute Change from Baseline (Year 1): -1.1 mg/dL | LDL-C Hopkins Median Observed Value (Year 1): 85.3 mg/dL | LDL-C derived Median % Change from Baseline (Year 1): 3.1% | LDL-C derived Median Absolute Change from Baseline (Year 1): 2.0 mg/dL | LDL-C derived Median Observed Value (Year 1): 77.0 mg/dL | Non-HDL-C Median % Change from Baseline (Year 1): −3.6% | Non-HDL-C Median Absolute Change from Baseline (Year 1): -4.0 mg/dL | Non-HDL-C Median Observed Value (Year 1): 113.0 mg/dL | Triglycerides Median % Change from Baseline (Year 1): −18.3% | Triglycerides Median Absolute Change from Baseline (Year 1): -39.0 mg/dL | Triglycerides Median Observed Value (Year 1): 175.0 mg/dL | HDL-C Between Group Difference Median % Change from Baseline (Year 1, vs placebo): −6.3% | HDL-C Between Group Difference Median Absolute Change from Baseline (Year 1, vs placebo): -2.5 mg/dL | LDL-C Hopkins Between Group Difference Median % Change from Baseline (Year 1, vs placebo): −11.4% | LDL-C Hopkins Between Group Difference Median Absolute Change from Baseline (Year 1, vs placebo): -9.6 mg/dL | LDL-C derived Between Group Difference Median % Change from Baseline (Year 1, vs placebo): −6.6% | LDL-C derived Between Group Difference Median Absolute Change from Baseline (Year 1, vs placebo): -5.0 mg/dL | Non-HDL-C Between Group Difference Median % Change from Baseline (Year 1, vs placebo): −13.1% | Non-HDL-C Between Group Difference Median Absolute Change from Baseline (Year 1, vs placebo): -15.5 mg/dL | Triglycerides Between Group Difference Median % Change from Baseline (Year 1, vs placebo): −19.7% | Triglycerides Between Group Difference Median Absolute Change from Baseline (Year 1, vs placebo): -44.5 mg/dL | Apo B Median Year 1 (Year 1 in Table 18): 80.0 mg/dL | hsCRP Median Year 1 (Year 1 in Table 18): 1.8 mg/L | Apo B Median Between Group Difference at Year 1, % Change from Baseline (Year 1 in Table 18, vs placebo): −9.7% | Apo B Median Between Group Difference at Year 1, Absolute Change from Baseline (Year 1 in Table 18, vs placebo): -8.0 mg/dL | hsCRP Median Between Group Difference at Year 1, % Change from Baseline (Year 1 in Table 18, vs placebo): −39.9% | hsCRP Median Between Group Difference at Year 1, Absolute Change from Baseline (Year 1 in Table 18, vs placebo): -0.9 mg/L | Apo B Median % Change from Baseline (Year 2): −2.5% | Apo B Median Absolute Change from Baseline (Year 2): -2.0 mg/dL

Reference: patent publication US20200261391A1, “METHODS OF REDUCING THE RISK OF A CARDIOVASCULAR EVENT IN A STATIN-TREATED SUBJECT BY INCREASING SERUM AND PLASMA EPA AND DPA LEVELS” (Amarin Pharmaceuticals Ireland Limited, priority 2019, published 2020)
